Like-named read-outs stand apart in the source and are kept apart here.
Assays:
Solubility observations = format: physicochemical; settings: 500 μM; erratic readings
human topo IIα [1] = biological target: T1, human topo IIα (Homo sapiens, UniProt P11388); assay: ATPase activity (ATP hydrolysis) assay, pyruvate kinase/lactate dehydrogenase coupled; format: biochemical
T1 construct: purchased Inspiralis (Norwich, U.K.)

HepG2 cells = assay: DNA double-strand break induction, γ-H2AX assay; format: cell-based, human
human topo IIα [2] = biological target: T1, human topo IIα; assay: Human topoisomerase II competitive ATPase assay; format: biochemical
Method: The human topo competitive ATPase assay was executed at Inspiralis (Norwich, U.K.). The compound was analyzed using a kinase/lactate dehydrogenase assay as described above.
A mixture of the assay buffer (20 mM Tris–HCl, 5 mM magnesium acetate, 125 mM potassium acetate, 2 mM DTT, pH 7.9), linear pBR322 (1.5 μL of 1 mg/mL per assay), phosphoenol pyruvate (0.5 μL of 80 mM per assay), pyruvate kinase/lactate dehydrogenase mix (0.75 μL per assay), NADH (1 μL of 20 mM per assay), DMSO (1.5 μL per assay), and water (32.85 μL per assay) was prepared. This mixture (41.1 μL) was put into the wells of a 384-well microtiter plate. DMSO (0.5 μL) or the diluted investigated compound in the DMSO was added to the wells and mixed. Subsequently, 5 μL of the dilution buffer or human topo IIα (12 nM final concentration) was added and mixed. Before the run, a prerun was done where we added 3.4 μL of the appropriate concentration of ATP and monitored the OD340 for up to 35 min. The assay temperature was 37 °C. Two negative controls (4% DMSO and dilution buffer without enzyme) were used in the presence of 2 mM ATP. The ATP concentrations in this assay were 0.025, 0.05, 0.075, 0.1, 0.25, 0.5, 0.75, and 1 mM. The assays were executed in duplicate at 3.9, 31, 50, 75, and 100 μM final concentrations of the investigated compound 1. DMSO has a final concentration of 4% (v/v) in all of the reactions.
8. Human topoisomerase II ATPase assays at different concentration of the ATP – Competitive ATPase assay
The spectrophotometer produces an output as change in OD340 with time (data not shown).
The data from the runs after the addition of the ATP were plotted after adjusting the starting OD340 to zero. Lines are fitted to these by linear regression and the rates (OD change/min) calculated. The rates for each ATP and inhibitor concentration were then calculated as μM ATP hydrolysed/min using an extinction coefficient of 6.22 M-1 cm-1 and a path length of 0.5 cm. The rates were then plotted against the ATP concentration and curves fitted to the data using the hyperbolic equation y=(ax/(b+x) where y = rate, x = [ATP], a = Vmax and b=Km.
Using the equation y=y0+(ax/(b+x)) it was possible to solve it and obtain values. […]
concentrations after subtraction of the background rate and calculated Km (mM ATP) and Vmax (μM ATP/min) values. They were calculated from equation y = (ax /(b+x) where y = rate, x = [ATP], a = Vmax.
Rates for controls without enzyme in the presence of 2 mM ATP (μmol/min) […]
Rates (μmol/min) at different ATP concentrations (mM) after subtraction of background […]
Calculated Km (mM ATP) and Vmax (μM ATP/min) values

human topo IIα [3] = biological target: T1, human topo IIα; assay: Human topo IIα-mediated cleavage assay; format: biochemical
Description: To determine whether compounds act as catalytic inhibitors, a cleavage assay was next performed for compounds 1 and 9.
We performed the assay in collaboration with Inspiralis (Norwich, U.K.).

human topo IIβ = biological target: T2, human topo IIβ (Homo sapiens, UniProt Q02880); assay: Human topo IIβ-mediated kDNA decatenation assay; format: biochemical
T2 construct: purchased Inspiralis (Norwich, U.K.)
Method: We were also interested in whether compounds can act on both isoforms of the human topo II. Thus, we performed human topo IIβ decatenation assays for compounds 1 and 9. […] (see also Tables S5 and S6 for more details).
We made use of the human topo II decatenation assay kit from Inspiralis (Norwich, U.K.) to assess the ability of selected compounds to impede DNA decatenation.[89],[90] It was performed for topo IIα and topo IIβ isoforms using the protocol as described previously.[35]

[4] = 500 μM (compound 1: solubility problems, erratic readings)

T1 sequence (P11388 whole entry): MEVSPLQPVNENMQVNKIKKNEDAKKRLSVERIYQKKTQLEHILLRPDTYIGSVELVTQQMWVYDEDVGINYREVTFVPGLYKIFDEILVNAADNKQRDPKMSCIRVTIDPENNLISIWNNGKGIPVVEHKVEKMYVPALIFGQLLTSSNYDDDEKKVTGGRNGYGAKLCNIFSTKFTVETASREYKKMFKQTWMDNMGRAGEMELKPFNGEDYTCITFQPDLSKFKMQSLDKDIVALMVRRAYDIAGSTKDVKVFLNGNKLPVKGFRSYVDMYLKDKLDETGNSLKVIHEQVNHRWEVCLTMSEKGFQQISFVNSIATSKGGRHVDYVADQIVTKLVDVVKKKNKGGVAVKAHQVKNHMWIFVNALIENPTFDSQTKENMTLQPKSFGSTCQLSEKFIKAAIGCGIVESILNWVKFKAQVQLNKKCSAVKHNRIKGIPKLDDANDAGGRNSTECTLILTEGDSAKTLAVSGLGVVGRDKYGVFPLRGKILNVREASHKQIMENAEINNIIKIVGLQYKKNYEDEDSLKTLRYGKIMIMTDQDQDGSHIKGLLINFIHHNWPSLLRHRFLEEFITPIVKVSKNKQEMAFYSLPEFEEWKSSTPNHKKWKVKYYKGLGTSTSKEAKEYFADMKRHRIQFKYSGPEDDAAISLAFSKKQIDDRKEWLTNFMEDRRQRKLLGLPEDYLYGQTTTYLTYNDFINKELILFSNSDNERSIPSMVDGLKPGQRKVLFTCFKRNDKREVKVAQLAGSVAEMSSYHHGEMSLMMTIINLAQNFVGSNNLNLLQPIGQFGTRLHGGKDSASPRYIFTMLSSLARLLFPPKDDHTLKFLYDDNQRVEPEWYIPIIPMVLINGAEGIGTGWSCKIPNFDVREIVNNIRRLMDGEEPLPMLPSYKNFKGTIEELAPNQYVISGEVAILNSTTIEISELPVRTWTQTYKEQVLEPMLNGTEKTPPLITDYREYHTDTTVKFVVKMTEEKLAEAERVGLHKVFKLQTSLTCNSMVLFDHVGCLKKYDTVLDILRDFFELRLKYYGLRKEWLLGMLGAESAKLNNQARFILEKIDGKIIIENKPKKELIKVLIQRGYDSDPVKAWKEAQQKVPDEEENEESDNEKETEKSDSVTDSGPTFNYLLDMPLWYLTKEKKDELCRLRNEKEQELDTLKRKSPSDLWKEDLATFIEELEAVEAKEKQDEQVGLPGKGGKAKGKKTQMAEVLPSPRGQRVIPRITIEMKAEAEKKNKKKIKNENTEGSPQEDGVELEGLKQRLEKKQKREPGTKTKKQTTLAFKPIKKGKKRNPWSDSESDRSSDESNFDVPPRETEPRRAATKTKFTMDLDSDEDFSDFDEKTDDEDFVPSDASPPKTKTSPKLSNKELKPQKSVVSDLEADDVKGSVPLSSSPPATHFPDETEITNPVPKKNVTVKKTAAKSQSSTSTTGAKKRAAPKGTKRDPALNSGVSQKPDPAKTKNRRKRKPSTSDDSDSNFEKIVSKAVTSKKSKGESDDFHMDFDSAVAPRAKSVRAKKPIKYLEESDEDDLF
T2 sequence (Q02880 whole entry): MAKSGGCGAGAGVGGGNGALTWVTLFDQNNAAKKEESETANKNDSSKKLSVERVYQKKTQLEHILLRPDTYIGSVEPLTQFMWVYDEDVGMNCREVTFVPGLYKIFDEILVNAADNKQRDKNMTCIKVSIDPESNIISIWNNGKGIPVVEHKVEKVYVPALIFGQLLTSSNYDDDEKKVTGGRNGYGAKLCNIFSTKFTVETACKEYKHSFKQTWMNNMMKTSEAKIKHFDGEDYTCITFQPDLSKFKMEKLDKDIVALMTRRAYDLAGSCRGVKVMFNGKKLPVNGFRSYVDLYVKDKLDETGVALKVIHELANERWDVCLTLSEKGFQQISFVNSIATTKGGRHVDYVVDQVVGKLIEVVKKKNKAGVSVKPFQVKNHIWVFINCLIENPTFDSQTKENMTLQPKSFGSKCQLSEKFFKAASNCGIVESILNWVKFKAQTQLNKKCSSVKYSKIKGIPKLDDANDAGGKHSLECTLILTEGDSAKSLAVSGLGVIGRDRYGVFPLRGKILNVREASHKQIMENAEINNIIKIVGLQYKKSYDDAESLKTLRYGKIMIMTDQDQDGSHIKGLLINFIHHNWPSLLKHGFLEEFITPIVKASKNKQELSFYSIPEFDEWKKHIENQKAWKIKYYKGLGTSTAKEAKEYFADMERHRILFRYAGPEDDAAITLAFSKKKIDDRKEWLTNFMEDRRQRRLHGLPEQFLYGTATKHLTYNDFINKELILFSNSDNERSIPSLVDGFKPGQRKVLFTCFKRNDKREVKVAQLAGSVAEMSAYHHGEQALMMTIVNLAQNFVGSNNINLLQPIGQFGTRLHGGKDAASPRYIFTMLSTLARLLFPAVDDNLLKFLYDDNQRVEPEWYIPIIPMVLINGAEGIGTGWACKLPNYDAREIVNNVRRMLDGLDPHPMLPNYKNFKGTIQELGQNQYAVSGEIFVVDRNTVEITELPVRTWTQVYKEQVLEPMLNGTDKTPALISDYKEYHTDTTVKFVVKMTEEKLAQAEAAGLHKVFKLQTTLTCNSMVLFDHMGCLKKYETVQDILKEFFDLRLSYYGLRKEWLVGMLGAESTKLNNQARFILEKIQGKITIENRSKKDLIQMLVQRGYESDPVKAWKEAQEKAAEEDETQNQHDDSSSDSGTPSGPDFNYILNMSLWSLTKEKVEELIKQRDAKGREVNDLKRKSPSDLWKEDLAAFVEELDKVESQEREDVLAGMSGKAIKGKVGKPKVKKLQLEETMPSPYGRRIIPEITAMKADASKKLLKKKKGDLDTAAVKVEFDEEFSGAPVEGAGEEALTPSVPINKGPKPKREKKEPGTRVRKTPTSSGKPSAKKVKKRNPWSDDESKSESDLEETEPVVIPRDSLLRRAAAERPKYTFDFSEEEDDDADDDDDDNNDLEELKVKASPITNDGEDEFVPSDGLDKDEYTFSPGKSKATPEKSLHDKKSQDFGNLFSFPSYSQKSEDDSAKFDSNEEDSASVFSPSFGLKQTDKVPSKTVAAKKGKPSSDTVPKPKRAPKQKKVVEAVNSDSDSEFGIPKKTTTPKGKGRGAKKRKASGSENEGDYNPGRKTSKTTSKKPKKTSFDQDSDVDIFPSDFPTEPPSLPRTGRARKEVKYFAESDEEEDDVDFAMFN

## Cc1nc(N)sc1-c1csc(Nc2ccc(C(F)(F)F)cc2)n1 [Compound 1]
Solubility observations
  solubility in the ATPase assay: solubility problems
Human topo IIα [1]; 3.9 μM
  Percentage ATPase activity Run 1: 92.25%
  Percentage ATPase activity Run 2: 88.37%
Human topo IIα [1]; 31.5 μM
  Percentage ATPase activity Run 1: 96.12%
  Percentage ATPase activity Run 2: 94.57%
Human topo IIα [1]; 125 μM
  Percentage ATPase activity Run 1: 24.81%
  Percentage ATPase activity Run 2: 16.28%
  inhibition of topo IIα-mediated ATP hydrolysis (in words): almost fully inhibited
Human topo IIα [1]; [4]
  Percentage ATPase activity Run 1: 65.12%
  Percentage ATPase activity Run 2: 36.43%
HepG2 cells; 10 μM
  induction of DNA double-strand breaks (γH2AX): did not induce an increase in DNA-DSB formation
HepG2 cells; 50 μM
  induction of DNA double-strand breaks (γH2AX): did not induce an increase in DNA-DSB formation
Human topo IIα [2]; ATP 0.025 (mM per method), fit R^2 0.474, read-out: IC50 at c(ATP) 0.025
  IC50: 0.0038 mM
Human topo IIα [2]; ATP 0.05 (mM per method), read-out: IC50 at c(ATP) 0.05
  IC50: 0.0088 mM
Human topo IIα [2]; ATP 0.075 (mM per method), read-out: IC50 at c(ATP) 0.075
  IC50: 0.0148 mM
Human topo IIα [2]; ATP 0.1 (mM per method), read-out: IC50 at c(ATP) 0.1
  IC50: 0.0094 mM
Human topo IIα [2]; ATP 0.25 (mM per method), read-out: IC50 at c(ATP) 0.25
  IC50: 0.0183 mM
Human topo IIα [2]; ATP 0.5 (mM per method), read-out: IC50 at c(ATP) 0.5
  IC50: 0.0152 mM
Human topo IIα [2]; ATP 0.75 (mM per method), read-out: IC50 at c(ATP) 0.75
  IC50: 0.0178 mM
Human topo IIα [2]; ATP 1 (mM per method), read-out: IC50 at c(ATP) 1
  IC50: 0.0216 mM
Human topo IIα [2]; ATP 2 (mM per method), read-out: IC50 at c(ATP) 2
  IC50: 0.0254 mM
Human topo IIα [2]; compound 3.9 μM
  Calculated Vmax: 2.97 μM ATP/min
Human topo IIα [2]; compound 3.9 μM, ATP 0.025 mM
  Rate of ATP hydrolysis after subtraction of background: 0.064 µmol/min
Human topo IIα [2]; compound 3.9 μM, ATP 0.05 mM
  Rate of ATP hydrolysis after subtraction of background: 0.257 µmol/min
Human topo IIα [2]; compound 3.9 μM, ATP 0.075 mM
  Rate of ATP hydrolysis after subtraction of background: 0.354 µmol/min
Human topo IIα [2]; compound 3.9 μM, ATP 0.1 mM
  Rate of ATP hydrolysis after subtraction of background: 0.450 µmol/min
Human topo IIα [2]; compound 3.9 μM, ATP 0.25 mM
  Rate of ATP hydrolysis after subtraction of background: 1.158 µmol/min
Human topo IIα [2]; compound 3.9 μM, ATP 0.5 mM
  Rate of ATP hydrolysis after subtraction of background: 1.479 µmol/min
Human topo IIα [2]; compound 3.9 μM, ATP 0.75 mM
  Rate of ATP hydrolysis after subtraction of background: 1.801 µmol/min
Human topo IIα [2]; compound 3.9 μM, ATP 1 mM
  Rate of ATP hydrolysis after subtraction of background: 1.897 µmol/min
Human topo IIα [2]; compound 3.9 μM, ATP 2 mM
  Rate of ATP hydrolysis after subtraction of background: 2.444 µmol/min
Human topo IIα [2]; compound 31 μM
  Calculated Vmax: 1.9 μM ATP/min
Human topo IIα [2]; compound 31 μM, ATP 0.05 mM
  Rate of ATP hydrolysis after subtraction of background: 0.032 µmol/min
Human topo IIα [2]; compound 31 μM, ATP 0.075 mM
  Rate of ATP hydrolysis after subtraction of background: 0.096 µmol/min
Human topo IIα [2]; compound 31 μM, ATP 0.1 mM
  Rate of ATP hydrolysis after subtraction of background: 0.161 µmol/min
Human topo IIα [2]; compound 31 μM, ATP 0.25 mM
  Rate of ATP hydrolysis after subtraction of background: 0.450 µmol/min
Human topo IIα [2]; compound 31 μM, ATP 0.5 mM
  Rate of ATP hydrolysis after subtraction of background: 0.707 µmol/min
Human topo IIα [2]; compound 31 μM, ATP 0.75 mM
  Rate of ATP hydrolysis after subtraction of background: 0.868 µmol/min
Human topo IIα [2]; compound 31 μM, ATP 1 mM
  Rate of ATP hydrolysis after subtraction of background: 1.061 µmol/min
Human topo IIα [2]; compound 31 μM, ATP 2 mM
  Rate of ATP hydrolysis after subtraction of background: 1.286 µmol/min
Human topo IIα [2]; compound 50 μM
  Calculated Vmax: 2.77 μM ATP/min
Human topo IIα [2]; compound 50 μM, ATP 0.025 mM
  Rate of ATP hydrolysis after subtraction of background: 0.000 µmol/min
Human topo IIα [2]; compound 50 μM, ATP 0.05 mM
  Rate of ATP hydrolysis after subtraction of background: 0.096 µmol/min
Human topo IIα [2]; compound 50 μM, ATP 0.075 mM
  Rate of ATP hydrolysis after subtraction of background: 0.129 µmol/min
Human topo IIα [2]; compound 50 μM, ATP 0.1 mM
  Rate of ATP hydrolysis after subtraction of background: 0.032 µmol/min
Human topo IIα [2]; compound 50 μM, ATP 0.25 mM
  Rate of ATP hydrolysis after subtraction of background: 0.193 µmol/min
Human topo IIα [2]; compound 50 μM, ATP 0.5 mM
  Rate of ATP hydrolysis after subtraction of background: 0.450 µmol/min
Human topo IIα [2]; compound 50 μM, ATP 0.75 mM
  Rate of ATP hydrolysis after subtraction of background: 0.707 µmol/min
Human topo IIα [2]; compound 50 μM, ATP 1 mM
  Rate of ATP hydrolysis after subtraction of background: 0.772 µmol/min
Human topo IIα [2]; compound 50 μM, ATP 2 mM
  Rate of ATP hydrolysis after subtraction of background: 1.222 µmol/min
Human topo IIα [2]; compound 75 μM
  Calculated Vmax: 1.94 μM ATP/min
Human topo IIα [2]; compound 75 μM, ATP 0.025 mM
  Rate of ATP hydrolysis after subtraction of background: 0.096 µmol/min
Human topo IIα [2]; compound 75 μM, ATP 0.05 mM
  Rate of ATP hydrolysis after subtraction of background: 0.032 µmol/min
Human topo IIα [2]; compound 75 μM, ATP 0.1 mM
  Rate of ATP hydrolysis after subtraction of background: 0.064 µmol/min
Human topo IIα [2]; compound 75 μM, ATP 0.25 mM
  Rate of ATP hydrolysis after subtraction of background: 0.225 µmol/min
Human topo IIα [2]; compound 75 μM, ATP 0.5 mM
  Rate of ATP hydrolysis after subtraction of background: 0.322 µmol/min
Human topo IIα [2]; compound 75 μM, ATP 0.75 mM
  Rate of ATP hydrolysis after subtraction of background: 0.386 µmol/min
Human topo IIα [2]; compound 75 μM, ATP 1 mM
  Rate of ATP hydrolysis after subtraction of background: 0.354 µmol/min
Human topo IIα [2]; compound 75 μM, ATP 2 mM
  Rate of ATP hydrolysis after subtraction of background: 0.740 µmol/min
Human topo IIα [2]; compound 100 μM
  Calculated Vmax: 3.07 μM ATP/min
Human topo IIα [2]; compound 100 μM, ATP 0.025 mM
  Rate of ATP hydrolysis after subtraction of background: 0.064 µmol/min
Human topo IIα [2]; compound 100 μM, ATP 0.05 mM
  Rate of ATP hydrolysis after subtraction of background: 0.032 µmol/min
Human topo IIα [2]; compound 100 μM, ATP 0.075 mM
  Rate of ATP hydrolysis after subtraction of background: 0.000 µmol/min
Human topo IIα [2]; compound 100 μM, ATP 0.1 mM
  Rate of ATP hydrolysis after subtraction of background: 0.032 µmol/min
Human topo IIα [2]; compound 100 μM, ATP 0.25 mM
  Rate of ATP hydrolysis after subtraction of background: 0.064 µmol/min
Human topo IIα [2]; compound 100 μM, ATP 0.5 mM
  Rate of ATP hydrolysis after subtraction of background: 0.418 µmol/min
Human topo IIα [2]; compound 100 μM, ATP 0.75 mM
  Rate of ATP hydrolysis after subtraction of background: 0.289 µmol/min
Human topo IIα [2]; compound 100 μM, ATP 1 mM
  Rate of ATP hydrolysis after subtraction of background: 0.354 µmol/min
Human topo IIα [2]; compound 100 μM, ATP 2 mM
  Rate of ATP hydrolysis after subtraction of background: 0.772 µmol/min
Human topo IIα [3]; 3.9 μM
  % Linear DNA (first column): 8.05%
  % Linear DNA (second column): 5.57%
Human topo IIα [3]; 31.5 μM
  % Linear DNA (first column): 6.32%
  % Linear DNA (second column): 7.77%
Human topo IIα [3]; 125 μM
  % Linear DNA (first column): 3.02%
  % Linear DNA (second column): 2.85%
Human topo IIα [3]; 500 μM
  % Linear DNA (first column): 2.45%
  % Linear DNA (second column): 2.98%
Human topo IIα [3]; four concentrations
  linear DNA formation in cleavage assay (in words): did not reveal a significant amount of linear DNA above the background level
Human topo IIβ; 125 μM
  inhibition of decatenation: completely inhibited
Human topo IIβ; 500 μM
  inhibition of decatenation: completely inhibited

Reference: paper PMC7469689, “Substituted 4,5′-Bithiazoles as Catalytic Inhibitors of Human DNA Topoisomerase IIα” (Journal of Chemical Information and Modeling, 2020)
